Source: PubChem BioAssay AID1963421 (Molecular Pharmacology Branch, DTP, NCI, 2024)

Tested on: 519858-162-T-J1-PDC complex spheroid growth, % test/control
Test: Anticancer human tumor 519858-162-T-J1-PDC patient-derived colon adenocarcinoma cell line growth inhibition [Asc]
Settings: for IC50: curve of first compound; for viability, T/C: stronger effect = lower value; active = viability on the fitted dose curve at most 10% of control; inactive = the rest
Method: Multicellular complex tumor spheroid response to apoptosis pathway targeting inhibitors Alrizomadlin, Pelcitoclax, and Dasminapant in combination with a variety of drugs and investigational agents in selected tumor cell lines
The MDM2 inhibitor alrizomadlin, the Bcl-2/Bcl-xL inhibitor pelcitoclax, and the IAPs inhibitor dasminapant were evaluated both individually and in combination with standard of care and investigational anticancer small molecules within a complex spheroid model of solid tumors. . Complex spheroids include a stromal component modeled by human endothelial cells (HUVEC) and fibroblasts modeled by human mesenchymal stem cells (MSCs). The concentration ranges selected for each drug and investigational agent were based upon clinically achievable concentrations if the clinical Cmax of the agent was known.
Compounds. The drugs and investigational agents: alrizomadlin (APG-115; NSC831270), pelcitoclax (APG-1252; NSC835773), dasminapant (APG-1387;NSC834197), TAK-243 (NSC785004), copanlisib (NSC809693), olaparib (NSC753686), talazoparib (NSC767125), cobimetinib (NSC 768068), eltanexor (KPT-8602, NSC 794443), abemaciclib (NSC 768073), sotorasib (NSC818433), adagrasib (NSC 831453), MRTX-1133 (NSC 836407), Iadademestat (ORY1001, NSC 806812), and RMC-4630 (NSC839698), were obtained from the NCI Developmental Therapeutics Program Chemical Repository. The FDA-approved anticancer drug set is available from the Developmental Therapeutics Program at https://dtp.cancer.gov/organization/dscb/obtaining/available plates.htm. […] The stock solutions were prepared in dimethyl sulfoxide (DMSO, Sigma-Aldrich, St. Louis, MO, cat. D2650) at 800-fold the tested concentration and stored at -70 degrees C prior to their use. All drugs and investigational agents were tested over a range starting from a high concentration at or near the clinical Cmax and decreasing in half-log increments. If the clinical Cmax for an agent had not been determined, the highest concentration tested was 10 microM.
The patient-derived cancer (PDC) cell lines include five colon adenocarcinomas: 186277-243-T-J2-PDC, 616215-338-R-J1-PDC, 439559-082-T-J2-PDC, 463943-066-T-J2-PDC, and 519858-162-T-J1-PDC; three pancreatic carcinomas: 323965-272-R-J2-PDC, 521955-158-R6-J3-PDC, and 521955-158-R2-J5-PDC; two uterine sarcomas: 327498-152-R-J2-PDC and 993429-296-R-J1-PDC; two rhabdomyosarcomas: 755483-174-R-J1-PDC and 772245-204-R-J1-PDC; two soft tissue sarcomas: 126254-015-R-J1-PDC and 494315-158-R-J1-PDC; two malignant fibrous histiocytomas: 317291-083-R-J1-PDC and 596521-263-R-J1-PDC; two breast carcinomas: 171881-019-R-J1-PDC and 885512-296-R-J2-PDC; and one ovarian carcinoma: 6556581-035-R-J-PDC were obtained from the NCI PDMR, (https://pdmr.cancer.gov). The established cell lines HSSY-2 synovial sarcoma (RRID:CVCL 8719), SYO-1 synovial sarcoma (RRID:CVCL_7146), MPNST malignant peripheral neural sheath tumor were obtained from the Sloan Kettering Institute. The following established cell lines were purchased from the American Type Culture Collection (ATCC, Manassas, VA), Sor the received from the NCI repository:, PANC-1 pancreatic carcinoma (CRL-1469, RRID:CVCL_0480), OVCAR-5 ovarian carcinoma (RRID:CVCL_1628), OVCAR-8 ovarian carcinoma (RRID:CVCL_1629), , MCF-7 breast carcinoma (CRL-12584, RRID:CVCL_0031), MDA-MB-231 breast carcinoma (CRL-12532, RRID:CVCL_0062), NCI-H1876 small cell lung carcinoma (CRL-5902, RRID:CVCL_1503), NCI-H510A small cell lung carcinoma (HTB-184, RRID:CVCL_1565), NCI-H1417 (CRL-5869, RRID:CVCL_1469), and NCI-H196 small cell lung carcinoma (CRL-5823, RRID:CVCL_1509). Dr. Peter Houghton (Greehey Children's Cancer Research Institute, University of Texas Health Science Center, San Antonio, TX) provided Rh-18 rhabdomyosarcoma (RRID:CVCL_1659). Pooled donor human umbilical vein endothelial cells (HUVEC, Lonza, cat. CC-2519) and human mesenchymal stem cells (hMSC, Lonza, cat. PT-2501) were purchased from Lonza (Walkersville, MD).
Cell Culture. […]
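Also: seven day drug exposure begun three days after spheroid seeding.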
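For viability, T/C in this document: 100% = DMSO vehicle wells and lower values mean less viable spheroid.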

C=CC(=O)N1CCN(c2nc(=O)n(-c3c(C)ccnc3C(C)C)c3nc(-c4c(O)cccc4F)c(F)cc23)C(C)C1 (configuration not stated) + Cc1c(S(C)(=O)=O)c(-c2cc(F)cc(N3CCN(c4ccc(NS(=O)(=O)c5ccc(NC(CCN6CCC(C(=O)OCCCP(=O)(O)O)CC6)CSc6ccccc6)c(S(=O)(=O)C(F)(F)F)c5)cc4)CC3)c2)c(-c2ccc(Cl)cc2)n1C(C)C
> 10 µM: IC50 (second compound 0.0316 µM) | IC50 (second compound 0.1 µM) | IC50 (second compound 0.316 µM) | IC50 (second compound 1 µM) | IC50 (second compound 3.16 µM)
0.0316 µM: IC50 (second compound 10 µM)
inactive: viability, T/C (second compound 0.0316 µM, first compound 0.0316 µM) 93.5% | viability, T/C (second compound 0.0316 µM, first compound 0.1 µM) 97.2% | viability, T/C (second compound 0.0316 µM, first compound 0.316 µM) 83.9% | viability, T/C (second compound 0.0316 µM, first compound 1 µM) 79.4% | viability, T/C (second compound 0.0316 µM, first compound 3.16 µM) 83.8% | viability, T/C (second compound 0.0316 µM, first compound 10 µM) 70.9% | viability, T/C (second compound 0.1 µM, first compound 0.0316 µM) 84.2% | viability, T/C (second compound 0.1 µM, first compound 0.1 µM) 84.3% | viability, T/C (second compound 0.1 µM, first compound 0.316 µM) 82.5% | viability, T/C (second compound 0.1 µM, first compound 1 µM) 89.5% | viability, T/C (second compound 0.1 µM, first compound 3.16 µM) 87.7% | viability, T/C (second compound 0.1 µM, first compound 10 µM) 77% | viability, T/C (second compound 0.316 µM, first compound 0.0316 µM) 89.7% | viability, T/C (second compound 0.316 µM, first compound 0.1 µM) 86.6% | viability, T/C (second compound 0.316 µM, first compound 0.316 µM) 76.2% | viability, T/C (second compound 0.316 µM, first compound 1 µM) 75.5% | viability, T/C (second compound 0.316 µM, first compound 3.16 µM) 68.7% | viability, T/C (second compound 0.316 µM, first compound 10 µM) 66.1% | viability, T/C (second compound 1 µM, first compound 0.0316 µM) 62.6% | viability, T/C (second compound 1 µM, first compound 0.1 µM) 58.5% | viability, T/C (second compound 1 µM, first compound 0.316 µM) 72.4% | viability, T/C (second compound 1 µM, first compound 1 µM) 69.5% | viability, T/C (second compound 1 µM, first compound 3.16 µM) 87.9% | viability, T/C (second compound 1 µM, first compound 10 µM) 73.6% | viability, T/C (second compound 3.16 µM, first compound 0.0316 µM) 72.8% | viability, T/C (second compound 3.16 µM, first compound 0.1 µM) 77.9% | viability, T/C (second compound 3.16 µM, first compound 0.316 µM) 64% | viability, T/C (second compound 3.16 µM, first compound 1 µM) 60.6% | viability, T/C (second compound 3.16 µM, first compound 3.16 µM) 56.3% | viability, T/C (second compound 3.16 µM, first compound 10 µM) 68.9% | viability, T/C (second compound 10 µM, first compound 0.0316 µM) 52.9% | viability, T/C (second compound 10 µM, first compound 0.1 µM) 53.7% | viability, T/C (second compound 10 µM, first compound 0.316 µM) 46.9% | viability, T/C (second compound 10 µM, first compound 1 µM) 55.3% | viability, T/C (second compound 10 µM, first compound 3.16 µM) 83.2% | viability, T/C (second compound 10 µM, first compound 10 µM) 63.7%
